# Data as given in patent publication US5200393A, “Lipid excipient for nasal delivery and topical application” (The Liposome Company, Inc., priority 1991, dated 1993).
# Legend:
# [1] = Nasal delivery of calcitonin in MOPE excipient to rats, serum calcium; type: in vivo, rat; conditions: MOPE used as the excipient delivery vehicle; FIG. 1; change in serum calcium after one and three hours
# Experimental: Eight Wistar Kyoto male rats, weighing 250-300 g were anesthetized with a 20% solution of urethane administered in a divided dose of 1/6 g/kg, administered intraperitoneally (IP).
# The rats were surgically prepared for nasal sample instillation according to the Harai method (Hussain et al., 19800, J. Pharm. Sci., 69(12):1411-1413. A pre-drug blood sample was taken from each rat (1.0 ml drawn from retroorbital site) and allowed to clot, and the serum separated by standard technique.
# The calcitonin-MOPE solution (single 50 uL doses per rate) were administered by inserting a syringe containing the sample into the rats nostril, and injecting. A blood sample was obtained from each rat after one and three hours, and assayed for serum calcium.
# Serum calcium was determined colorimetrically by the Sigma Diagnostics Calcium Kit No. 587 (Sigma, St. Louis, Mo.). The change in serum calcium levels compared to pre-drug controls was plotted as a function of time. (FIG. 1)
# [2] = Nasal delivery of insulin in MOPE excipient to diabetic rats, serum insulin radioimmunoassay; type: in vivo, rat
# Experimental: The insulin-MOPE solution of Example 4 was instilled into the nasal cavity of rats according to the methods of Example 3. Right Sprague-Dawley male 300 g rats which had been made diabetic according to the methods of Weiner et al., 1985, J. Pharm. Sci., 74:922-925 were used. Blood samples were collected after one hour and serum separated according to standard methods as in Example 3. The serum was analyzed for insulin using the Coat-A-CountInsulin ^125 I radioimmunoassay (Diagnostic Products Corp., Los Angeles, Calif.).
# MOPE (80.0 mg) in chloroform was dried down to a lipid film on a round bottom flask at 37° C. in a water bath. The film was resuspended in 10.0 ml of distilled water which had been pH adjusted to pH 9.0 with about 20-50 uL of 0.1N sodium hydroxide (NaOH). Four mg of porcine insulin powder (Eli Lilly, Indianapolis, Ind.) supplied as 25 U/mg, was admixed with the MOPE solution and vortically mixed, creating a 0.8% MOPE insulin gel. The resulting gel was administered to diabetic rats according to the methods of Example 5. […] The methods of the above Example were repeated, dilutions were made to result in 10 ml of each of 0.4%, 0.2%, and 0.1% MOPE, 4.0 mg of insulin being admixed with these MOPE samples as well, the complete results from serum insulin concentrations of each sample plotted together in FIG. 2. […]
smiles,measurement,setting,value
"CCCCCCCC/C=C\CCCCCCCC(=O)OC[C@@H](O)COP(=O)(O)OCCN [MOPE, 1-oleoyl lysophosphatidylethanolamine]",enhancement of calcitonin through the nasal mucosa,[1],enhancement
same,lipid concentration at which enhanced drug absorption of insulin occurs,"[2]; excipient at about pH 7.0, cloudy fluid",about 0.8%
same,MOPE concentration that has most efficacy for penetration enhancement of insulin,"[2]; pH 9.0, in distilled water",0.2%
